Measured values published in paper PMC12455130, “Multifunctional molecular agent for tau-targeted combinational therapy of Alzheimer’s disease” (The Journal of Biological Chemistry, 2025).

What was measured:
[1] = test system: tau-infected SK-N-SH cells; assay: Immunofluorescence / ThS staining of intracellular tau aggregation; format: cell-based, human; conditions: 1.5 μM R3 aggregates, 10 μM inhibitor; for fluorescence intensity of ThS against the control group: ImageJ
Protocol: The red fluorescence of antitau antibody (Cy3-AB) staining marked for Pan Tau protein. […] Finally, the fluorescence intensity was quantitatively analyzed via ImageJ (National Institutes of Health).
Figure 8 Confocal laser scanning microscopy images of SK-N-SH cells incubated with R3 aggregates and different inhibitors. 2-(4-Amidinophenyl)-6-indolecarbamidine dihydrochloride (DAPI) for nuclei staining (blue); Thioflavin S (ThS) for aggregated Tau protein (green); Cy3 marked anti-Tau antibody (Cy3-AB) for Pan Tau protein (all conformations of Tau) (red). Concentrations of R3 aggregates and inhibitors are 1.5 μM and 10 μM, respectively. Scale bar represents 25 μm.
Tau-infected pathological model cell lines were constructed by human neuroblastoma SK-N-SH cells using R3 aggregates as inducer, referring our earlier article ([28]). R3 aggregates were obtained from coincubation of 15 μM R3 peptide with 3.8 μM heparin in PBS at 37 °C for 4 h. Then, the solution was diluted to 1.5 μM in the culture medium. SK-N-SH cells were seeded onto 24-well plates (1 × 10^5/well) for 24 h. Then, 10 μM of different compounds (inhibitors) per well was added and incubated for 2 h. After changing the culture medium, these cells were treated with 1.5 μM R3 aggregates for 12 h and then further continued incubation for 12 h.
The samples were successively treated with 4% paraformaldehyde and 0.1% Triton X-100 for 15 min each and washed three times with PBS. Blocked with 5% goat serum for 30 min, the samples were incubated with rabbit anti-Tau antibody (1:200 dilution) at 4 °C for 24 h and washed three times with PBS. Then they were incubated with Cy3-conjugated Donkey Anti-Rabbit IgG (1:1000 dilution) at 37 °C for 1 h and washed three times with PBS. Subsequently, 60 μM ThS was added to stain tau aggregates for 15 min and washed three times with PBS. Finally, cells were stained with 2-(4-amidinophenyl)-6-indolecarbamidine dihydrochloride (0.02%) for 5 min to staining nuclei and washed three times with PBS. The antifade mounting medium was used for cell slides to ensure fluorescence. The fluorescence signals were monitored using a CLSM (Leica TCS SP8).
Fig. S16 Quantitatively analysis of the fluorescence intensity in the Confocal laser scanning microscopy images ([…]) of SK-N-SH cells incubated with R3, heparin and different inhibitors by ImageJ software. Florescence intensity per cell (n = 8), analyzed by ImageJ software.

tau peptide R3 = target: T1, tau peptide R3 (Homo sapiens, UniProt P10636); assay: ThS assay, heparin-induced R3 aggregation (kinetics and dose-response); format: biochemical; conditions: for IC50: 3 h at 37 °C, ThS fluorescence; for inhibition of R3 assembly (ThS kinetics): 5, 10 and 40 μM, 15 μM R3, heparin
T1 construct: R3 (^306VQIVYK PVDLSK VTSKCG SLGNIH HKPGGG Q^336) and rabbit anti-tau antibody were purchased from MuJin; purchased MuJin
T1 sequence (P10636 623-653 limits assumed): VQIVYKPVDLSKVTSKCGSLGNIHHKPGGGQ
Protocol: The inhibition effect of 4GA–2GA on R3 aggregation was explored by thioflavin S (ThS) assay ([24]). In general, the kinetics of R3 aggregation in the absence or the presence of 4GA, 2GA was assessed by measuring the emission intensity of ThS at 500 nm, which reflects the amount of R3 aggregates. As the control experiments, the aggregation kinetics of 4ME and GA were also carried out. While induced by heparin, R3 aggregates rapidly at 37 °C, and the fluorescence of ThS reaches a maximum after an average time of 200 s (Fig. 4A). Based on the aforementioned conditions, the inhibitory ability of our synthetic compounds at three different concentrations (5, 10, and 40 μM) was tested.
Next, the dose–response inhibitory effects of our synthetic compounds on R3 aggregation were investigated. The detailed experimental operation was descripted in ESI. […] The apparent values of IC50 were calculated according to the dose−response curve.
Tau peptide R3 was adjusted to a concentration of 15 μM using 50 mM Tris−HCl buffer (pH 7.4), ThS (final concentration of 10 μM), and different amounts of 4GA, 2GA, 4ME, and GA (final concentration of 0, 5, 10, and 40 μM) as the aggregation inhibitor were added in1to the reaction mixture. Aggregation was induced by adding heparin to the solution (final concentration of 3.8 μM); the kinetics of each sample was immediately monitored by a fluorescence spectrophotometer with a 10-mm quartz cell at 440/500 nm (excitation/emission). A circulating water bath was necessary to maintain the temperature at 37 °C.
Tau peptide R3 was adjusted to a concentration of 15 μM using 50 mM Tris–HCl buffer (pH 7.4). Different amounts of 4GA, 2GA, 4ME, and GA (final concentration of 0, 1, 2, 4, 6, 10, 15, 20, 30, 40, 60, or 80 μM) as the aggregation inhibitors were added into the reaction mixture. Aggregation was induced by adding heparin to the solution (final concentration of 3.8 μM), After 3 h incubation at 37°C, ThS (final concentration of 10 μM) was added, and the fluorescence intensity at 440/500 nm (excitation/emission) was recorded on Hitachi F-7000 with a 10-mm quartz cell. The dose−response inhibitory effects of R3 aggregation were expressed by the aggregation percentage, which was calculated according to the following (Formula 4.3):(4.3) aggregation%=F-F0/Ft-F0×100
where F0 = fluorescence intensity of R3 monomer, Ft = fluorescence intensity of R3 aggregate, and F = fluorescence intensity of R3 aggregate in the presence of inhibitors. The IC50 values were also calculated according to the dose−response inhibitory effects.
Tau peptide R3 was adjusted to a concentration of 15 μM using Tris−HCl buffer (pH 7.4), and the synthetic compounds (4GA, 2GA, together with 4ME, GA as the comparison) at different concentrations, as aggregation inhibitor, were added into the reaction mixture separately. Aggregation was induced by heparin, and incubated at 37 °C for 3 h. By introducing fluorescence probe ThS, the dose−response inhibitory effects on R3 aggregation were recorded, according to normalized ThS fluorescence intensity (excitation: 440 nm, emission: 500 nm).
Figure S14. Inhibitory effects of N-substituted Azacrown on heparin-induced R3 aggregation, exermined by ThS fluorescence: 15 μM R3 and 3.8 μM heparin with cyclen, 1ME, 2ME, 3ME, and 4ME (80 μM) was incubated respectively at 37°C for 3h. 10 μM ThS was added to each of the solution, Spectra of ThS fluorescence were recorded at Ex440 nm.

Structure (SMILES) | intracellular tau aggregation (ThS green fluorescence, CLSM) [1] | fluorescence intensity of ThS against the control group [1] [%] | IC50 (tau peptide R3; 15 μM R3, 3.8 μM heparin) [µM] | inhibition of R3 assembly (ThS kinetics) (tau peptide R3; 37 °C) | effect on heparin-induced R3 aggregation (ThS fluorescence at 500 nm) (tau peptide R3; 80 μM compound, 15 μM R3, 3.8 μM heparin, 37 °C, 3 h)
O=C(c1cc(O)c(O)c(O)c1)N1CCN(C(=O)c2cc(O)c(O)c(O)c2)CCN(C(=O)c2cc(O)c(O)c(O)c2)CCN(C(=O)c2cc(O)c(O)c(O)c2)CC1 [4GA, (1,4,7,10-tetraazacyclododecane-1,4,7,10-tetrayl)tetrakis((3,4,5-trihydroxyphenyl)methanone)] | the green fluorescence disappeared | 3.3 | 3.8 | strongly inhibited R3 assembly | –
CN1CCN(C)CCN(C)CCN(C)CC1 [4ME, 1,4,7,10-tetramethyl-1,4,7,10-tetraazacyclododecane, reference compound] | slight inhibitory efficiency | – | – | – | did not hinder the aggregation of R3 peptides
O=C(O)c1cc(O)c(O)c(O)c1 [GA, gallic acid, reference compound] | slight inhibitory efficiency | – | > 80 | – | –
CN1CCN(C(=O)c2cc(O)c(O)c(O)c2)CCN(C)CCN(C(=O)c2cc(O)c(O)c(O)c2)CC1 [2GA, (4,10-dimethyl-1,4,7,10-tetraazacyclododecane-1,7-diyl)bis((3,4,5-trihydroxyphenyl)methanone)] | the green fluorescence disappeared | 4.6 | 5.5 | strongly inhibited R3 assembly | –
